Reference: US20260092179A1, “GENETICALLY MODIFIED HOST CELLS PRODUCING VIOLACEIN, ANALOGUES, AND DERIVATIVES THEREOF” (OCTARINE BIO APS, priority 2022, published 2026)

What was measured:
S. cerevisiae = test: Cultivation of engineered S. cerevisiae production strains (titer of each metabolite, final OD600, product toxicity); details: intracellular accumulation; growth rate and final OD600
[1] = Free radical scavenging ability of dyed Nylon 6,6 fabric (DPPH); format: biochemical; details: dyed Nylon 6,6 fabric strip
Description: Violacein is reported as being a potent antioxidant able to effectively scavenge free radicals. […] To test this, 1.5×1.5 cm dyed Nylon 6,6 fabric strips were incubated in the dark at room temperature for 1 h in 5 mL of a 5×10^−5 M DPPH free radical solution in 100% ethanol. Undyed Nylon 6,6 fabric strips were included as a negative control. After 1 h absorbance was measured at 517 nm and % scavenging ability calculated as above.

[2] = UV absorption capability (absorbance maxima, UV-A, UV-B, UV-C absorption) by HPLC; format: physicochemical
Description: The software Agilent Openlab CDS Chemstation Rev.
Violacein is reported as being a potent UV absorbent able to effectively absorb UV radiation, however, much less is known about the other violacein derivatives. To investigate the potential of using violacein and violacein derivatives as UV inhibitors and to potentially impart UV protection to fabrics, the UV absorption spectra of each compound was analyzed by HPLC and the total absorption capability at each of the most relevant UV wavelengths quantified.
For the quantification of UV absorption capacity of the compound of interest, a chromatographic separation on the F5 column and a gradient of water/acetonitrile containing 0.05% formic acid was run according to Example 5). […] The compounds were quantified based on the signal at 230 nm, using calibration curves of authentic analytical standards.
The UV absorption capacity is represented in mAU.min/mM. UV-A, UV-B and UV-C represent the most relevant regions where UV protection is required. UV-C is the most harmful type of UV radiation and can be generated by inorganic sources. UV-B radiation predominantly comes from the suns rays and is responsible for sun burn. UV-A radiation is also derived predominantly from the suns rays, and while UV-A radiation is less harmful than UV-B or UV-C but is much more prevalent.

S. cerevisiae S228c = test: Antimicrobial activity of dyed Nylon 6,6 fabric: final OD600 and % inhibition; format: cell-based
Description: (§1) Violacein is reported as being a potent antibiotic, capable of inhibiting the growth of a wide range of microbial kingdoms including bacteria, yeast, fungi, viruses, protozoa and nematode. […] To test this, overnight cultures of wild-type E. coli DH5a and S. cerevisiae S228c strains were diluted in 5 mL of cultivation media (LB for E. coli, minimal media for S. cerevisiae) to a starting OD600 of 0.1. 1.5×1.5 cm dyed Nylon 6,6 fabric strips were sterilized by submerging in 75% ethanol for 15 mins and air drying in a laminar air flow hood before adding to each culture (with undyed Nylon 6,6 fabric as a negative control). […] This experiment provides evidence that all violacein derivatives display antimicrobial properties.

E. coli DH5a = test: as above; format: cell-based
Description: as §1

[3] = Solubility, stability (heat, UV) and colour of violacein and proviolacein glycosides in aqueous solution; format: physicochemical
Text: In this experiment, qualitative assessments of the solubility, stability and colour of glycosylated violacein and proviolacein were made. The first notable observation was that after the scale-up glycosylation reaction the aqueous phase of the reaction mix was purple (for violacein) and blue (for proviolacein). […] While its well known that glycosylation greatly improves the water solubility of molecules, the attachment of a sugar group typically changes the physiochemical properties of the molecule. In the case of coloured compounds, this typically eliminates their colour. The observation here that glycosylation results in a derivative that retains the original colour is both surprising and commercially useful for use in aqueous products e.g. beverages. To test the stability of violacein and proviolacein glycosides in aqueous solution the solutions were exposed to heat (incubated at 80° c. for 6 h) and UV (incubated in a UV hood for 6 h). HPLC analysis before after each test was used to measure the amount that had degraded during exposure. […] (approx. 0.1% lost during exposure).

Description for S. cerevisiae SC-144: After cultivation cultures were transferred to 50 mL falcon tubes and centrifuged 4000×g for 5 min. […] The aqueous layers were separated from the cell pellets to observe the colour of the cells. […] Samples were diluted in water to a final volume of 100 μL until they were within the linear range of the spectrophotometric plate reader. Each sample was measured at 575 nm (experimentally determined to be the emission maxima of deoxyviolacein). […] The final OD600 of each cultivation was also measured by first washing the cell pellet with water (to remove as much deoxyviolacein from the media as possible) and finally resuspending in 50 mL water.

In the case of `N=C(Cc1c[nH]c2ccccc12)C(=O)O` [IPA imine, Indole 3-pyruvic acid imine], the “toxicity to the yeast production host” value (S. cerevisiae) is reported as “not toxic”.
For `CCCCCCCCCCCCCC(=O)OC(C)C` [isopropyl myristate], the “toxicity of in situ extractant to S. cerevisiae” value (S. cerevisiae SC-144) was “non-toxic”.
For `O=C1N=C(c2c[nH]c3ccccc23)C=C1c1c[nH]c2ccccc12` [prodeoxyviolacein], the OD517 ([1]; 1 h in the dark in 5×10^−5 M DPPH in 100% ethanol) was 1.99, the Scavenging ability % ([1]; 1 h in the dark in 5×10^−5 M DPPH, vs undyed control) was 12.28% and the “UV absorption capability in the UV-B region” value ([2]; 305 nm) was “particularly high”. For the same molecule, the “Total UV absorption UV C (245 nm)” value ([2]; AUC of HPLC peak at 245 nm per mM) was 3516.1 (mAU · min)/mM, the “Total UV absorption UV B (305 nm)” value ([2]; AUC of HPLC peak at 305 nm per mM) was 3778.8 (mAU · min)/mM and the “Total UV absorption UV A (360 nm)” value ([2]; AUC of HPLC peak at 360 nm per mM) was 0 (mAU · min)/mM. For the same molecule, the “Final OD600” value (S. cerevisiae S228c; S. cerevisiae cultured overnight at 30° c. with dyed Nylon 6,6 fabric strip, starting OD600 0.1) was 4.70, the “% Inhibition” value (S. cerevisiae S228c; S. cerevisiae, dyed Nylon 6,6 fabric vs undyed fabric control) was 12.35% and the “Final OD600” value (E. coli DH5a; E. coli cultured overnight at 30° c. with dyed Nylon 6,6 fabric strip, starting OD600 0.1) was 4.67. The “% Inhibition” value (E. coli DH5a; E. coli, dyed Nylon 6,6 fabric vs undyed fabric control) was 10.49%.
With `O=C1NC(c2c[nH]c3ccc(OC4OC(CO)C(O)C(O)C4O)cc23)=CC1=C1C(=O)Nc2ccccc21` (stereo not shown) [violacein glucoside] the “amount lost (degraded) during exposure to UV” value [3] was “approx. 0.1%”, the “amount lost (degraded) during exposure to heat” value [3] was “approx. 0.1%” and the water solubility [3] was “water soluble”.
For “(1,1,3,3-Tetramethylbutyl)phenyl-polyethylene glycol, Polyethylene glycol tert-octylphenyl ether [Triton X-114]”, the “toxicity of in situ extractant to S. cerevisiae” value (S. cerevisiae SC-144) was “non-toxic”.
